Measured values from patent US20050266512A1, “Detection of proteases and screening for protease inhibitors” (priority 2000, published 2005).

System: horse erythrocytes
Assay: Hemolytic plate assay (erythrocyte lysis, decrease in absorbance)
Type: cell-based
Details: FIG. 1
Method: The HIV-1 proaerolysin variant generated in EXAMPLE 3 was incubated with varying concentrations of an HIV protease-containing sample in a microtiter plate (HIV-1 protease obtained from BACHEM, Torrance, Calif.). The HIV-1 proaerolysin variant (1.5×10^−6 M) was diluted 1:16 in PBS to a final volume of 100 μl and added to the first column of wells of a 96 well plate. Various concentrations of HIV-protease containing samples, ranging from 10 to 500 ng of HIV-1 protease in a final volume of 100 μl, were added to each of the 8 wells of the first column of the microtiter plate, and the plate incubated for four hours.
After incubation, the samples were serially diluted 1:2 by adding 100 μl of PBS to the first column of wells, mixing and transferring 100 μl sequentially to each of the wells in every row. Then, 100 μl of washed horse erythrocytes were added to all wells so that the final erythrocyte concentration was 0.4%. […]

Substance	absorbance (erythrocyte lysis) (HIV variant of proaerolysin activated with HIV protease, absorbance at 600 nm, listed as HIV variant of proaerolysin)	absorbance (erythrocyte lysis) (HIV variant of proaerolysin activated with HIV protease, absorbance at 600 nm, listed as proaerolysin variant)	absorbance (erythrocyte lysis) (native proaerolysin activated with trypsin)
HIV-1 proaerolysin variant: proaerolysin variant in which the normal activation sequence KVRRAR was replaced with the HIV-1 protease sensitive sequence QNYPIV	decrease in absorbance	lysis of the erythrocytes	
native proaerolysin: precursor form of the aerolysin toxin, a 52 kDa protein produced by bacteria in the genus Aeromonas			decrease in absorbance
